# Literature values in US20120148541A1, “COMPOSITIONS AND METHODS TO GENERATE PILOSEBACEOUS UNITS” (priority 2010, published 2012).
# Tests used:
# [1] = in published reports
# [2] = DMSO
smiles,measurement,setting,value
"c1cc(-c2cnn3cc(-c4ccc(OCCN5CCCCC5)cc4)cnc23)ccn1 [Dorsomorphin, dorsomorphin]",toxicity,[1],low toxicity
same,solubility,[2],soluble in DMSO
